Like-named read-outs stand apart in the source and are kept apart here.
Test system: NL-RLuc virus
Test: Inhibition of HIV replication (NL-RLuc reporter virus in MT-2 cells, luciferase readout)
Format: cell-based
Conditions: Human immunodeficiency virus 1, MT2, 120 h
Method in brief: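 MT-2 cells infected with NL4-3-derived NL-RLuc reporter virus (Renilla luciferase replacing part of nef) with serial compound dilutions, RPMI 1640 + 10% FBS; 5 days. Growth by luciferase; EC50 from median effect equation, ≥2 experiments.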

SMILES | EC50 (read-out: Activity) | EC50 (read-out: EC50 μM)
COc1cccc(CN2CCc3cc(-c4c(C)nc(C)c([C@H](OC(C)(C)C)C(=O)O)c4N4CCC(C)(C)CC4)ccc3C2)c1Cl [Compound 129, (S)-2-(tert-butoxy)-2-(5-(2-(2-chloro-3-methoxybenzyl)-1,2,3,4-tetrahydroisoquinolin-6-yl)-4-(4,4-dimethylpiperidin-1-yl)-2,6-dimethylpyridin-3-yl)acetic acid] | < 0.1 µM | 0.003 µM
Cc1nc(C)c([C@H](OC(C)(C)C)C(=O)O)c(N2CCC(C)(C)CC2)c1-c1ccc2c(c1)CCN(Cc1cccc(Cl)c1F)C2 [Compound 130, (S)-2-(tert-butoxy)-2-(5-(2-(3-chloro-2-fluorobenzyl)-1,2,3,4-tetrahydroisoquinolin-6-yl)-4-(4,4-dimethylpiperidin-1-yl)-2,6-dimethylpyridin-3-yl)acetic acid] | < 0.1 µM | –
Cc1cc(Cl)ccc1CN1CCc2cc(-c3c(C)nc(C)c([C@H](OC(C)(C)C)C(=O)O)c3N3CCC(C)(C)CC3)ccc2C1 [Compound 131, (S)-2-(tert-butoxy)-2-(5-(2-(4-chloro-2-methylbenzyl)-1,2,3,4-tetrahydroisoquinolin-6-yl)-4-(4,4-dimethylpiperidin-1-yl)-2,6-dimethylpyridin-3-yl)acetic acid] | < 0.1 µM | –
Cc1ccc(CN2CCc3cc(-c4c(C)nc(C)c([C@H](OC(C)(C)C)C(=O)O)c4N4CCC(C)(C)CC4)ccc3C2)cc1Cl [Compound 132, (S)-2-(tert-butoxy)-2-(5-(2-(3-chloro-4-methylbenzyl)-1,2,3,4-tetrahydroisoquinolin-6-yl)-4-(4,4-dimethylpiperidin-1-yl)-2,6-dimethylpyridin-3-yl)acetic acid] | < 0.1 µM | –
Cc1ccc(Cl)cc1CN1CCc2cc(-c3c(C)nc(C)c([C@H](OC(C)(C)C)C(=O)O)c3N3CCC(C)(C)CC3)ccc2C1 [Compound 133, (S)-2-(tert-butoxy)-2-(5-(2-(5-chloro-2-methylbenzyl)-1,2,3,4-tetrahydroisoquinolin-6-yl)-4-(4,4-dimethylpiperidin-1-yl)-2,6-dimethylpyridin-3-yl)acetic acid] | < 0.1 µM | –
Cc1cc(CN2CCc3cc(-c4c(C)nc(C)c([C@H](OC(C)(C)C)C(=O)O)c4N4CCC(C)(C)CC4)ccc3C2)ccc1Cl [Compound 134, (S)-2-(tert-butoxy)-2-(5-(2-(4-chloro-3-methylbenzyl)-1,2,3,4-tetrahydroisoquinolin-6-yl)-4-(4,4-dimethylpiperidin-1-yl)-2,6-dimethylpyridin-3-yl)acetic acid] | < 0.1 µM | 0.012 µM
Cc1nc(C)c([C@H](OC(C)(C)C)C(=O)O)c(N2CCC(C)(C)CC2)c1-c1ccc2c(c1)CCN(Cc1c(F)cc(Cl)cc1F)C2 [Compound 135, (S)-2-(tert-butoxy)-2-(5-(2-(4-chloro-2,6-difluorobenzyl)-1,2,3,4-tetrahydroisoquinolin-6-yl)-4-(4,4-dimethylpiperidin-1-yl)-2,6-dimethylpyridin-3-yl)acetic acid] | < 0.1 µM | –
Cc1nc(C)c([C@H](OC(C)(C)C)C(=O)O)c(N2CCC(C)(C)CC2)c1-c1ccc2c(c1)CCN(Cc1c(F)cccc1Cl)C2 [Compound 136, (S)-2-(tert-butoxy)-2-(5-(2-(2-chloro-6-fluorobenzyl)-1,2,3,4-tetrahydroisoquinolin-6-yl)-4-(4,4-dimethylpiperidin-1-yl)-2,6-dimethylpyridin-3-yl)acetic acid] | < 0.1 µM | –
COc1ccc(CN2CCc3cc(-c4c(C)nc(C)c([C@H](OC(C)(C)C)C(=O)O)c4N4CCC(C)(C)CC4)ccc3C2)cc1Cl [Compound 137, (S)-2-(tert-butoxy)-2-(5-(2-(3-chloro-4-methoxybenzyl)-1,2,3,4-tetrahydroisoquinolin-6-yl)-4-(4,4-dimethylpiperidin-1-yl)-2,6-dimethylpyridin-3-yl)acetic acid] | < 0.1 µM | –

— patent publication US10189816B2, “Substituted pyridines as inhibitors of human immunodeficiency virus replication” (priority 2015, dated 2019)
